The nature of series [1]: Circular dichroism spectroscopy, helical residues per peptide chain. The format is physicochemical. Particulars: calculated from [θ]222. The gist of the method:
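CD spectra recorded at 20 °C, four scans averaged; peptide concentration checked by A280 with the single-Trp extinction coefficient of 5700 M^−1. Helical residues per chain calculated as −[θ]222×30/28,000 from mean residue ellipticity at 222 nm.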

A further series addresses T1, PTHR-delNt (Homo sapiens, UniProt Q03431, DEL24-181).
T1 construct: expressed in transfected cells; host or cells: COS-7 cells, transient co-transfection; membranes prepared
T1 sequence (Q03431 with tags, fused parts or gaps DEL24-181): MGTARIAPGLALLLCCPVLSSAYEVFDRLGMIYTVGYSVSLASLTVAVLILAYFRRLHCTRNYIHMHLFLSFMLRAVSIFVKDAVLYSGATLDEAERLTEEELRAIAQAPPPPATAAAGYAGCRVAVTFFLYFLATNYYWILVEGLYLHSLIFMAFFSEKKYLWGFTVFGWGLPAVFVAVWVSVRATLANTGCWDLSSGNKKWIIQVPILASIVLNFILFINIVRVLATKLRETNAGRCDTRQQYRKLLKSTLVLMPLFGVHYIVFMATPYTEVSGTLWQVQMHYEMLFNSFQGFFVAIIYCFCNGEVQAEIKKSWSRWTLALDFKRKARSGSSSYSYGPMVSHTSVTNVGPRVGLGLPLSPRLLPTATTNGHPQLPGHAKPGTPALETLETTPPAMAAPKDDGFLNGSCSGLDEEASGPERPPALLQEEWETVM
As to the kind of experiment: Competition binding in COS-7 cell membranes with 125I-[Aib1,3,M]PTH(1-15)NH2 tracer. The conditions noted are these: for IC50: COS-7 membranes cotransfected with negative-dominant Gαs, read-out: PTHR-delNT (COS-7) IC50; for effect on binding to PTHR-delNt (in words) / reduction (alteration) of binding affinity for PTHR-delNt relative to parent peptide: COS-7 membranes; for reduction (alteration) of binding affinity for PTHR-delNt relative to parent peptide: versus the respective parent peptide. An outline of the steps: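 Membranes (20 µg/well) from COS-7 cells co-transfected with human PTHR lacking residues 24–181 plus dominant-negative Gαs, incubated 90 min at 21 °C with 125I-[Aib1,3,M]PTH(1-15)NH2 and unlabeled peptide (3×10^−9 to 1×10^−5 M), then filtered and gamma-counted. Non-specific binding with 1×10^−6 M [Aib1,3,M]PTH(1-15)NH2; IC50 by four-parameter logistic fit, extrapolated to reference maximal inhibition where incomplete.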

[2] abbreviates: [Ala1,Arg19]hPTH(1-31)NH2 analogs.

The source of these data is patent publication US8143374B2, “Polypeptide derivatives of parathyroid hormone (PTH)” (The General Hospital Corporation, priority 2006, dated 2012).

Where two headings read alike, the source gives them in different places. Where a SMILES comes first, the peptide text is derived from it. Where no end group is shown, it is not given here. [ ]: non-standard residue; d: D form. Cha = N[C@@H](CC1CCCCC1)C(=O)O

The term IC50 denotes the concentration needed to halve the response being measured. Consider `CC[C@H](C)[C@H](NC(=O)[C@H](CCC(=O)O)NC(=O)[C@H](CO)NC(=O)[C@@H](NC(=O)[C@H](C)N)C(C)C)C(=O)N[C@@H](CCC(N)=O)C(=O)N[C@@H](CC(C)C)C(=O)N[C@@H](CCSC)C(=O)N[C@@H](Cc1c[nH]cn1)C(=O)N[C@@H](CC(N)=O)C(=O)N[C@@H](CC(C)C)C(=O)NCC(=O)N[C@@H](CCCCN)C(=O)N[C@@H](Cc1c[nH]cn1)C(=O)N[C@@H](CC(C)C)C(=O)N[C@@H](CC(N)=O)C(=O)N[C@@H](CO)C(=O)N[C@@H](CCSC)C(=O)N[C@@H](CCCNC(=N)N)C(=O)N[C@@H](CCCNC(=N)N)C(=O)N[C@H](C(=O)N[C@@H](CCC(=O)O)C(=O)N[C@@H](Cc1c[nH]c2ccccc12)C(=O)N[C@@H](CC(C)C)C(=O)N[C@@H](CCCNC(=N)N)C(=O)N[C@@H](CCCCN)C(=O)N[C@@H](CCCCN)C(=O)N[C@@H](CC1CCCCC1)C(=O)N[C@@H](CCC(N)=O)C(=O)N[C@@H](CC(=O)O)C(=O)N[C@H](C(N)=O)C(C)C)C(C)C` [Leu^28→Cha] (H-AVSEIQLMHNLGKHLNSMRRVEWLRKK[Cha]QDV-NH2; N-terminus assumed), for which the CD helical residues in series [1] (setting [2]) was 8. Moreover, the IC50 on PTHR-delNt (setting [2]) was determined as 0.226 ± 0.039 µM.

Take `CC[C@H](C)[C@H](NC(=O)[C@H](CCC(=O)O)NC(=O)[C@H](CO)NC(=O)[C@@H](NC(=O)[C@H](C)N)C(C)C)C(=O)N[C@@H](CCC(N)=O)C(=O)N[C@@H](CC(C)C)C(=O)N[C@@H](CCSC)C(=O)N[C@@H](Cc1c[nH]cn1)C(=O)N[C@@H](CC(N)=O)C(=O)N[C@@H](CC(C)C)C(=O)NCC(=O)N[C@@H](CCCCN)C(=O)N[C@@H](Cc1c[nH]cn1)C(=O)N[C@@H](CC(C)C)C(=O)N[C@@H](CC(N)=O)C(=O)N[C@@H](CO)C(=O)N[C@@H](CCSC)C(=O)N[C@@H](CCCNC(=N)N)C(=O)N[C@@H](CCCNC(=N)N)C(=O)N[C@H](C(=O)N[C@@H](CCC(=O)O)C(=O)N[C@@H](Cc1c[nH]c2ccccc12)C(=O)N[C@@H](CC(C)C)C(=O)N[C@@H](CCCNC(=N)N)C(=O)N[C@@H](CCCCN)C(=O)N[C@@H](CCCCN)C(=O)N[C@@H](CC(C)C)C(=O)N[C@@H](CC1CCCCC1)C(=O)N[C@@H](CC(=O)O)C(=O)N[C@H](C(N)=O)C(C)C)C(C)C` [Gln^29→Cha] (H-AVSEIQLMHNLGKHLNSMRRVEWLRKKL[Cha]DV-NH2; N-terminus assumed): in series [1] (setting [2]), the CD helical residues was 8. Further, the 50% inhibitory concentration (IC50) on PTHR-delNt (setting [2]) turned out to be 0.319 ± 0.057 µM.

Regarding “SVSEIQLMHNLGKHLNSMERVEWLRKKLQAV-NH2 [Asp^30→Ala]”, the CD helical residues in series [1] (hPTH(1-31)NH2 analogs) is 10. Also, the IC50 on PTHR-delNt (hPTH(1-31)NH2 analogs) was 1.54 µM.

`CC[C@H](C)[C@H](NC(=O)[C@H](CCC(=O)O)NC(=O)[C@H](CO)NC(=O)[C@@H](NC(=O)[C@H](C)N)C(C)C)C(=O)N[C@@H](CCC(N)=O)C(=O)N[C@@H](CC(C)C)C(=O)N[C@@H](CCSC)C(=O)N[C@@H](Cc1c[nH]cn1)C(=O)N[C@@H](CC(N)=O)C(=O)N[C@@H](CC(C)C)C(=O)NCC(=O)N[C@@H](CCCCN)C(=O)N[C@@H](Cc1c[nH]cn1)C(=O)N[C@@H](CC(C)C)C(=O)N[C@@H](CC(N)=O)C(=O)N[C@@H](CO)C(=O)N[C@@H](CCSC)C(=O)N[C@@H](CCCNC(=N)N)C(=O)N[C@@H](CCCNC(=N)N)C(=O)N[C@H](C(=O)N[C@@H](CCC(=O)O)C(=O)N[C@@H](Cc1c[nH]c2ccccc12)C(=O)N[C@@H](CC1CCCCC1)C(=O)N[C@@H](CCCNC(=N)N)C(=O)N[C@@H](CCCCN)C(=O)N[C@@H](CCCCN)C(=O)N[C@@H](CC(C)C)C(=O)N[C@@H](CCC(N)=O)C(=O)N[C@@H](CC(=O)O)C(=O)N[C@H](C(N)=O)C(C)C)C(C)C` [Leu^24→Cha] (H-AVSEIQLMHNLGKHLNSMRRVEW[Cha]RKKLQDV-NH2; N-terminus assumed): the CD helical residues in series [1] (setting [2]) is recorded as 9. Also, at PTHR-delNt, the “effect on binding to PTHR-delNt (in words)” value is recorded as “little or no effect on binding to PTHR-delNt” and the “reduction (alteration) of binding affinity for PTHR-delNt relative to parent peptide” value is given as “three-fold or less”. Also, on PTHR-delNt (setting [2]), the IC50 was found to be 0.283 ± 0.068 µM.

On to “AVSEIQLMHNLGKHLNSMRRVEELRKKLQDV-NH2 [Trp^23→Glu]”, for which the CD helical residues in series [1] (setting [2]) was 7. At PTHR-delNt, the “effect on binding to PTHR-delNt (in words)” value is given as “only mildly impaired binding to PTHR-delNt” and the “reduction (alteration) of binding affinity for PTHR-delNt relative to parent peptide” value is given as “less than three-fold”. For the same compound, the IC50 on PTHR-delNt (setting [2]) was 0.434 ± 0.084 µM.
